Consider 31 molecules from patent US8476434B2, “Protein kinase modulators and method of use” (Amgen Inc., priority 2004, dated 2013).

Where only a bound is given, the exact number is not on record here.

T1 sequence (P06239 225-509): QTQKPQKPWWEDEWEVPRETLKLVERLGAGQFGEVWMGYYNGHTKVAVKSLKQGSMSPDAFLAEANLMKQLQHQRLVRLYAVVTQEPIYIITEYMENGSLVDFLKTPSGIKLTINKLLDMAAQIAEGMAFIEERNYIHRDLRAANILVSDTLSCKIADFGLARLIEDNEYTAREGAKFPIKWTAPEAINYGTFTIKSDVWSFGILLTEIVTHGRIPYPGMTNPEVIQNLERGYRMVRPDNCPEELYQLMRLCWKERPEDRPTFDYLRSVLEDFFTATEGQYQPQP

The test concerns the target T1, LCK KD GST (225-509) (Homo sapiens, UniProt P06239).
T1 construct: LCK KD GST (225-509); GST
In words: LCK Homogenous Time Resolved Fluorescent (HTRF) kinase assay. Format: biochemical. How it is done:
The LCK HTRF assay begins with LCK in the presence of ATP phosphorylating the biotinylated peptide Gastrin. The reaction incubates for 90 min. To quench the assay detection reagents are added which both stop the reaction by diluting out the enzyme and chelating the metals due to the presence of EDTA. Once the detection reagents are added the assay incubates for 30 min to allow for equilibration of the detection reagents.
Buffer conditions are as follows: 50 mM HEPES pH 7.5, 50 mM NaCl, 20 mM MgCl, 5 mM MnCl, 2 mM DTT, 0.05% BSA.
The assay is quenched and stopped with 160 μL of detection reagent. Detection reagents are as follows: Buffer made of 50 mM Tris, pH 7.5, 100 mM NaCl, 3 mM EDTA, 0.05% BSA, 0.1% Tween20.
The assay plate is read in either a Discovery or a RubyStar.
The molecule `CNc1ncnc(-c2cccnc2Oc2ccc(NC(=O)Nc3cc(C(F)(F)F)ccc3N3CC[C@H](N(C)C)C3)c3ccccc23)n1` [N-(2-((3S)-3-(dimethylamino)-1-pyrrolidinyl)-5-(trifluoromethyl)phenyl)-N′-(4-((3-(4-(methylamino)-1,3,5-triazin-2-yl)-2-pyridinyl)oxy)-1-naphthalenyl)urea] returned an IC50 of less than 1 µM.
In the case of `CNc1ncnc(-c2cccnc2Oc2ccc(NC(=O)Nc3cc(C(F)(F)F)ccc3CN3CC[C@@H](N(C)C)C3)c3ccccc23)n1` [N-(2-(((3R)-3-(dimethylamino)-1-pyrrolidinyl)methyl)-5-(trifluoromethyl)phenyl)-N′-(4-((3-(4-(methylamino)-1,3,5-triazin-2-yl)-2-pyridinyl)oxy)-1-naphthalenyl)urea], the concentration for half-maximal inhibition (IC50) was less than 1 µM.
Take `CNc1cc(-c2cccnc2Oc2ccc(Cl)c(NC(=O)c3cccc(C(C)C)c3)c2)ccn1` [N-(2-chloro-5-((2′-(methylamino)-3,4′-bipyridin-2-yl)oxy)phenyl)-3-(1-methylethyl)benzamide]: the IC50 is less than 1 µM.
Turning to `CNc1ncnc(-c2cccnc2Oc2cc(C(=O)Nc3cc(C(F)(F)F)ccc3Cl)ccc2C)n1` [N-(2-chloro-5-(trifluoromethyl)phenyl)-4-methyl-3-((3-(4-(methylamino)-1,3,5-triazin-2-yl)-2-pyridinyl)oxy)benzamide], the IC50 is less than 1 µM.
As for `Cc1ccc(C(=O)Nc2cc(C(F)(F)F)ccc2Cl)cc1Oc1ncccc1-c1ccncn1` [N-(2-chloro-5-(trifluoromethyl)phenyl)-4-methyl-3-((3-(4-pyrimidinyl)-2-pyridinyl)oxy)benzamide], the figure is less than 1 µM; as for `CNc1nccc(-c2cccnc2Oc2ccc(NC(=O)Nc3cc(C(F)(F)F)ccc3Cl)cc2C)n1` [N-(2-chloro-5-(trifluoromethyl)phenyl)-N′-(3-methyl-4-((3-(2-(methylamino)-4-pyrimidinyl)-2-pyridinyl)oxy)phenyl)urea], less than 1 µM; as for `CNc1nccc(-c2cccnc2Oc2ccc(NC(=O)Nc3cc(C(F)(F)F)ccc3F)c3ccccc23)n1` [N-(2-fluoro-5-(trifluoromethyl)phenyl)-N′-(4-((3-(2-(methylamino)-4-pyrimidinyl)-2-pyridinyl)oxy)-1-naphthalenyl)urea], less than 1 µM.
As for `CNc1nccc(-c2cccnc2Oc2cc(C(=O)Nc3cc(C(C)(C)C)nn3-c3ccccc3)ccc2C)n1` [N-(3-(1,1-dimethylethyl)-1-phenyl-1H-pyrazol-5-yl)-4-methyl-3-((3-(2-(methylamino)-4-pyrimidinyl)-2-pyridinyl)oxy)benzamide], the figure is less than 1 µM; as for `Cc1ccc(C(=O)Nc2cc(C(C)(C)C)nn2-c2ccccc2)cc1Oc1ncccc1-c1ccncn1` [N-(3-(1,1-dimethylethyl)-1-phenyl-1H-pyrazol-5-yl)-4-methyl-3-((3-(4-pyrimidinyl)-2-pyridinyl)oxy)benzamide], less than 1 µM.
As for `CNc1ncnc(-c2cccnc2Oc2ccc(F)c(C(=O)Nc3cccc(C(C)(C)C)c3)c2)n1` [N-(3-(1,1-dimethylethyl)phenyl)-2-fluoro-5-((3-(4-(methylamino)-1,3,5-triazin-2-yl)-2-pyridinyl)oxy)benzamide], the figure is less than 1 µM; as for `CNc1cc(-c2cccnc2Oc2cc(NC(=O)c3cccc(C(C)C)c3)cc(C(F)(F)F)c2)ccn1` [N-(3-((2′-(methylamino)-3,4′-bipyridin-2-yl)oxy)-5-(trifluoromethyl)phenyl)-3-(1-methylethyl)benzamide], less than 1 µM; as for `CNc1ncnc(-c2cccnc2Oc2cccc(NC(=O)c3cccc(C(C)C)c3)c2)n1` [N-(3-((3-(4-(methylamino)-1,3,5-triazin-2-yl)-2-pyridinyl)oxy)phenyl)-3-(1-methylethyl)benzamide], less than 1 µM.
With `CCOc1cccc(NC(=O)c2ccc(C)c(Nc3ncccc3-c3ccncn3)c2)c1` [N-(3-(ethyloxy)phenyl)-4-methyl-3-((3-(4-pyrimidinyl)-2-pyridinyl)amino)benzamide], the concentration for half-maximal inhibition (IC50) is less than 1 µM.
In the case of `CNc1nccc(-c2cccnc2Oc2ccc(NC(=O)Nc3cccc(Br)c3)cc2C)n1` [N-(3-bromophenyl)-N′-(3-methyl-4-((3-(2-(methylamino)-4-pyrimidinyl)-2-pyridinyl)oxy)phenyl)urea], the IC50 is less than 1 µM.
The molecule `CNc1nccc(-c2cccnc2Oc2ccc(F)c(C(=O)Nc3cc(C(F)(F)F)cc(Cl)c3N(C)CCCN(C)C)c2)n1` [N-(3-chloro-2-((3-(dimethylamino)propyl)(methyl)amino)-5-(trifluoromethyl)phenyl)-2-fluoro-5-((3-(2-(methylamino)-4-pyrimidinyl)-2-pyridinyl)oxy)benzamide] showed an IC50 of less than 1 µM.
As to `Cc1ccc(C(=O)Nc2cccc(Cl)c2)cc1Nc1ncccc1-c1ccncn1` [N-(3-chlorophenyl)-4-methyl-3-((3-(4-pyrimidinyl)-2-pyridinyl)amino)benzamide], the IC50 is less than 1 µM.
`CNc1nccc(-c2cccnc2Oc2ccc(NC(=O)Nc3cccc(Cl)c3)cc2C)n1` [N-(3-chlorophenyl)-N′-(3-methyl-4-((3-(2-(methylamino)-4-pyrimidinyl)-2-pyridinyl)oxy)phenyl)urea] displayed a half-maximal inhibitory concentration (IC50) of less than 1 µM.
As for `CNc1nccc(-c2cccnc2Oc2ccc(NC(=O)Nc3cc(F)cc(C(F)(F)F)c3)cc2C)n1` [N-(3-fluoro-5-(trifluoromethyl)phenyl)-N′-(3-methyl-4-((3-(2-(methylamino)-4-pyrimidinyl)-2-pyridinyl)oxy)phenyl)urea], the figure is less than 1 µM.
As for `CNc1nccc(-c2cccnc2Oc2ccc(NC(=O)Nc3cccc(F)c3)cc2C)n1` [N-(3-fluorophenyl)-N′-(3-methyl-4-((3-(2-(methylamino)-4-pyrimidinyl)-2-pyridinyl)oxy)phenyl)urea], the figure is less than 1 µM; as for `CNc1nccc(-c2cccnc2Oc2ccc(NC(=O)Nc3cc(C(F)(F)F)ccc3OCCN3CCCC3)cc2C)n1` [N-(3-methyl-4-((3-(2-(methylamino)-4-pyrimidinyl)-2-pyridinyl)oxy)phenyl)-N′-(2-((2-(1-pyrrolidinyl)ethyl)oxy)-5-(trifluoromethyl)phenyl)urea], less than 1 µM; as for `CNc1nccc(-c2cccnc2Oc2ccc(NC(=O)Nc3cc(C(F)(F)F)ccc3CN3CCN(C)CC3)cc2C)n1` [N-(3-methyl-4-((3-(2-(methylamino)-4-pyrimidinyl)-2-pyridinyl)oxy)phenyl)-N′-(2-((4-methyl-1-piperazinyl)methyl)-5-(trifluoromethyl)phenyl)urea], less than 1 µM.
The value for `CNc1nccc(-c2cccnc2Oc2ccc(NC(=O)Nc3cc(C4CCN(C)CC4)cc(C(F)(F)F)c3)cc2C)n1` [N-(3-methyl-4-((3-(2-(methylamino)-4-pyrimidinyl)-2-pyridinyl)oxy)phenyl)-N′-(3-(1-methyl-4-piperidinyl)-5-(trifluoromethyl)phenyl)urea] was less than 1 µM.
As to `O=C(Nc1cccc(C(F)(F)F)c1)Nc1ccc(Oc2ncccc2-c2ccncn2)c2ccccc12` [N-(4-((3-(4-pyrimidinyl)-2-pyridinyl)oxy)-1-naphthalenyl)-N′-(3-(trifluoromethyl)phenyl)urea], the IC50 is less than 1 µM.
The value for `CNc1ncnc(-c2cccnc2Oc2cc(NC(=O)c3cccc(OC(F)(F)F)c3)ccc2C)n1` [N-(4-methyl-3-((3-(4-(methylamino)-1,3,5-triazin-2-yl)-2-pyridinyl)oxy)phenyl)-3-((trifluoromethyl)oxy)benzamide] was less than 1 µM; that for `CNc1nccc(-c2cccnc2Oc2cc(C(=O)Nc3cc(C(C)(C)C)ccc3OC)ccc2C)n1` [N-(5-(1,1-dimethylethyl)-2-(methyloxy)phenyl)-4-methyl-3-((3-(2-(methylamino)-4-pyrimidinyl)-2-pyridinyl)oxy)benzamide] was less than 1 µM; that for `CNc1nccc(-c2cccnc2Oc2ccc(NC(=O)Nc3cc(C(C)(C)C)ccc3OC)cc2C)n1` [N-(5-(1,1-dimethylethyl)-2-(methyloxy)phenyl)-N′-(3-methyl-4-((3-(2-(methylamino)-4-pyrimidinyl)-2-pyridinyl)oxy)phenyl)urea] was less than 1 µM.
`CNc1ncnc(-c2cccnc2Oc2cc(C(=O)Nc3cc(C(C)(C)C)on3)ccc2C)n1` [N-(5-(1,1-dimethylethyl)-3-isoxazolyl)-4-methyl-3-((3-(4-(methylamino)-1,3,5-triazin-2-yl)-2-pyridinyl)oxy)benzamide]: the IC50 is less than 1 µM.
The value for `CNc1nccc(-c2cccnc2Oc2ccc(NC(=O)Nc3cc(Cl)ccc3N(C)CCCN(C)C)cc2C)n1` [N-(5-chloro-2-((3-(dimethylamino)propyl)(methyl)amino)phenyl)-N′-(3-methyl-4-((3-(2-(methylamino)-4-pyrimidinyl)-2-pyridinyl)oxy)phenyl)urea] was less than 1 µM; that for `CNc1nccc(-c2cccnc2Oc2ccc(NC(=O)Nc3cc(Cl)ccc3N(C)[C@@H]3CCN(C)C3)cc2C)n1` [N-(5-chloro-2-(methyl((3R)-1-methyl-3-pyrrolidinyl)amino)phenyl)-N′-(3-methyl-4-((3-(2-(methylamino)-4-pyrimidinyl)-2-pyridinyl)oxy)phenyl)urea] was less than 1 µM.
Take `CNc1nccc(-c2cccnc2Oc2ccc(NC(=O)Nc3cc(Cl)ccc3C)cc2C)n1` [N-(5-chloro-2-methylphenyl)-N′-(3-methyl-4-((3-(2-(methylamino)-4-pyrimidinyl)-2-pyridinyl)oxy)phenyl)urea]: the IC50 is less than 1 µM.
As to `COc1ccc(C2CCCCC2)cc1NC(=O)c1ccc(C)c(Oc2ncccc2-c2ncnc(NCCO)n2)c1` [N-(5-cyclohexyl-2-(methyloxy)phenyl)-3-((3-(4-((2-hydroxyethyl)amino)-1,3,5-triazin-2-yl)-2-pyridinyl)oxy)-4-methylbenzamide], the IC50 is less than 1 µM.
